Experimental data reported in patent US8946445B2, “Heterocyclic molecules as apoptosis inducers” (Nanjing Allgen Pharma Co. Ltd., priority 2011, dated 2015).

Legend:
[1] = test system: H460 non-small cell lung cancer cell line; assay: cell viability (proliferation) assay, Trypan blue exclusion counting, H460; type: cell-based; conditions: H460 cells, compound @ 1 μM, 72 hours, vs 1% DMSO control
Description: (§1) Anti-oncogenic effects of the compounds of the present invention were evaluated by cell viability (proliferation) assays in H460 non-small cell lung cancer cell line and A549 human lung carcinoma cell line. H460 and A549 were purchased from ATCC (American Type Culture Collection), and they were maintained in RPMI 1640 and DMEM, respectively, with 10% fetal bovine serum. Cell lines were cultured in an incubator with 5% CO2 at 37° C.
(§2) Cells were seeded in 6-well-plates (10^5 cells/ml medium per well) and allowed them to grow for 24 hrs in the incubator. Cells were then treated with 1 μM of tested compounds. Cells treated with 1% DMSO were used as control. 72 hours after treatment, cells were removed by trypsinization and viable cell number was obtained by counting Trypan blue-excluding cells under microscope with a hemocytometer. Experiments were performed in triplicate. Statistical were carried out by analysis of variance (ANOVA) and LSD test for multiple comparisons, with p<0.05 considered significant.

[2] = test system: A549 human lung carcinoma cell line; assay: cell viability (proliferation) assay, Trypan blue exclusion counting, A549; type: cell-based; conditions: A549 cells, compound @ 1 μM, 72 hours, vs 1% DMSO control
Description: as §1, §2

| SMILES | Cell Death (%) after 3-day treatment [1] | Cell Death (%) after 3-day treatment [2] |
| --- | --- | --- |
| COC1=CC(c2cc3sc(Cl)cc3[nH]2)=N/C1=C\c1[nH]c(C)cc1C [Example 2, (Z)-2-chloro-5-(2-((3,5-dimethyl-1H-pyrrol-2-yl)methylene)-3-methoxy-2H-pyrrol-5-yl)-4H-thieno[3,2-b]pyrrole] | 88.6% | 86.7% |
| COC1=CC(c2cc3ccccc3[nH]2)=N/C1=C\c1[nH]c(C)cc1C [Obatoclax] | 88.3% | 76.6% |
